Several values for one entry are separate records, joined by “and”; a condition that tells them apart may be missing. Equal values may be shown once. ± gives the uncertainty stated by the source.
How the values were obtained:
Conditions in all cases: 18 h
HEK293T-Rex XBP1-RLuc [1] = assay: EC50 for XBP1-RLuc reporter activation
Protocol: (§1)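 Dose-response of hit compounds in HEK293T-Rex cells stably expressing ERSE-FLuc or XBP1-RLuc reporters, 18 hr treatment, 1536-well; luminescence normalised to 500 nM thapsigargin (100%) and DMSO (0%), fitted to give EC50 (M) and maximal activation; '>' marks EC50 above the top tested dose (~17 µM).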

HEK293T-Rex ERSE-FLuc [2] = assay: EC50 for ERSE-FLuc reporter activation
Protocol: as §1

HEK293T-Rex ERSE-FLuc [3] = assay: maximal ERSE-FLuc activation from dose-response fit, relative to thapsigargin (% of thapsigargin); higher = stronger activation
Protocol: as §1

HEK293T-Rex XBP1-RLuc [4] = assay: maximal XBP1-RLuc activation from dose-response fit, relative to thapsigargin (% of thapsigargin); higher = stronger activation
Protocol: as §1

SMILES	EC50 for XBP1-RLuc reporter activation (HEK293T-Rex XBP1-RLuc [1])	EC50 for ERSE-FLuc reporter activation (HEK293T-Rex ERSE-FLuc [2])	maximal ERSE-FLuc activation (HEK293T-Rex ERSE-FLuc [3])	maximal XBP1-RLuc activation (HEK293T-Rex XBP1-RLuc [4])
C/C=C(/C)C(=O)O[C@H]1C(C)=C2[C@H]([C@@H]1OC(=O)CCCCCCC)[C@@](C)(OC(C)=O)C[C@H](OC(=O)CCC)[C@@]1(O)[C@H]2OC(=O)[C@@]1(C)O	0.11 µM and 0.146 µM	0.07 µM and 0.0669 µM	100 and 87.8	127 and 103
Nc1ccc2nc(-c3ccccn3)[nH]c2c1	> 16.9 µM	> 16.9 µM	16.8 ± 4.6	22 ± 0.38
Cc1ccc(C)c(/C=N/Nc2nncc3ccccc23)c1	> 17.1 µM	> 17.1 µM	26.4 ± 5.4	8.33 ± 1.1
O=C(N/N=C/c1ccc(O)c(O)c1)c1ccc(Br)cc1	16.8 µM	16 µM	51.2 ± 4.4	50.1 ± 4.6
CCc1nc2sc(C(=O)c3ccccc3)c(N)c2cc1C	> 16.3 µM	> 16.3 µM	25.4 ± 6.3	4.69 ± 3.2
COCCNC(=O)c1cc(-c2cccs2)on1	> 16.9 µM	15.5 µM	54.1 ± 14	9.6 ± 3.2
COc1ccc(C2C=C3Oc4ccccc4N=C3NN2)cc1 (configuration not stated)	> 16.9 µM	> 16.9 µM	27 ± 2.8	14.1 ± 2.1
COC(=O)c1c(NC(=O)CCl)sc(C(=O)Nc2cccc([N+](=O)[O-])c2)c1C	> 16.9 µM	> 16.9 µM	32.9 ± 4.5	29.6 ± 2.9
Oc1cccc(Nc2nc(-c3ccc(O)c(O)c3)cs2)c1	16.5 µM	12.5 µM	83.3 ± 11	51.6 ± 3.2
O=C1N/C(=C/c2ccc(O)cc2)C(=O)N1c1ccccc1	4.36 µM	3.42 µM	110 ± 11	76 ± 3.7
Cc1ccc(O)c(NC(=O)CN(C)S(=O)(=O)c2ccc(Cl)cc2)c1	> 16.9 µM	> 16.9 µM	43.4 ± 10	31.4 ± 0.96
CN(c1ccccc1)S(=O)(=O)c1cccc(C(=O)NCCc2ccc(O)c(O)c2)c1	8.35 µM	6.56 µM	202 ± 34	125.1 ± 1
C/C(=N\NC(=O)c1n[nH]c2c1CCCC2)c1ccc2ccccc2c1	> 16.9 µM	> 16.9 µM	23.2 ± 3.1	8.52 ± 1
CC1(C)Cc2ccccc2/C(=C/C(=O)C(=O)N/N=C/c2ccc(O)c(O)c2)N1	6.13 µM	> 16.9 µM	39 ± 3.2	54.9 ± 3.4
Cc1ccc(/C=N/NC(=O)c2cccc(Cl)c2)cc1	> 16.9 µM	> 16.9 µM	36.9 ± 7.8	3.19 ± 1.2
Cc1ccc(O)c(-c2cc(C(F)(F)C(F)F)no2)c1	> 16.7 µM	7.56 µM	79.8 ± 24	23.6 ± 5.9
O=[N+]([O-])c1ccc(N/N=C/c2ccccc2O)cc1	13 µM	> 16.9 µM	44.5 ± 7.8	68.9 ± 7.5
COc1cccc(C(=O)Nc2sc3c(c2C#N)CC(C)CC3)c1 (configuration not stated)	> 16.6 µM	> 16.6 µM	23.5 ± 8	2.09 ± 1.1
N#C/C(=C/c1ccc(O)c(O)c1)c1nc2ccccc2s1	> 16.9 µM	> 16.9 µM	38.1 ± 2.2	27.5 ± 2.7
CN(C)c1ccc(/C=N/NC(=O)c2cccc(Br)c2)cc1	> 16.9 µM	> 16.9 µM	19.2 ± 4.8	2.34 ± 2
CCCCNNC(=O)c1ccc(Br)cc1	> 17.4 µM	4.91 µM	95.4 ± 25	8.05 ± 3.5
Cc1ccc(/C=N/NC(=O)c2cccc(F)c2)cc1	> 16.9 µM	> 16.9 µM	23.1 ± 1.4	1.93 ± 2

SMILES	EC50 for XBP1-RLuc reporter activation (HEK293T-Rex XBP1-RLuc [1])	EC50 for ERSE-FLuc reporter activation (HEK293T-Rex ERSE-FLuc [2])	maximal ERSE-FLuc activation (HEK293T-Rex ERSE-FLuc [3])	maximal XBP1-RLuc activation (HEK293T-Rex XBP1-RLuc [4])
O=C(N/N=C/c1cccc(O)c1O)c1ccccc1I	> 16.9 µM	> 16.9 µM	39.5 ± 4.5	17.8 ± 3.8
Cc1cc2nc(-c3ccc(SCC#N)nc3)[nH]c2cc1C	> 16.9 µM	> 16.9 µM	20.4 ± 3.8	8.52 ± 0.53
Cc1ccccc1NC(=O)c1sc2nc(N)c(C#N)c(-c3ccc(C(C)C)cc3)c2c1N	4.47 µM	4.01 µM	169 ± 22	122 ± 17
CC(C)NC(=O)c1cc(-c2ccc(O)cc2)on1	> 16.9 µM	> 16.9 µM	1.46 ± 1	0.798 ± 0.58
COc1ccc(/C=C(\C#N)c2nc3ccccc3n2C)cc1	> 16.9 µM	> 16.9 µM	32.1 ± 2	0.49 ± 1.4
CC(=Nc1ccc(O)cc1)c1sc2ccccc2c1O	> 19.6 µM	> 19.6 µM	19.8 ± 4.8	31.2 ± 4.8
Cc1ccc(O)c(N/C=C/C(=O)c2cccs2)c1	10 µM	5.29 µM	225 ± 15	56.5 ± 2.8
Cc1ccc2nc(/C(C#N)=C/c3ccc(O)cc3)[nH]c2c1	> 16.9 µM	> 16.9 µM	35.3 ± 5.6	21.3 ± 3.4
O=c1[nH]c(COc2ccccc2)nc2sc3c(c12)CCCC3	> 16.3 µM	> 16.3 µM	23.3 ± 2.4	6.01 ± 1.1
N#Cc1c(NC(=O)c2ccc3c(c2)OCO3)sc2c1CCCC2	> 16.9 µM	> 16.9 µM	18.3 ± 3.2	1.79 ± 3.7
CN(C)c1ccc(-c2nc3ccc(N)cc3[nH]2)cc1	> 15.6 µM	> 15.6 µM	42.7 ± 3.8	32 ± 6
Cc1ccc(O)c(NC(=O)c2cc(C3CC3)on2)c1	> 16.9 µM	2.02 µM	91.7 ± 12	23.7 ± 1.1
CC(=O)Oc1ccc2cc(NC(=O)c3ccc(C)cc3)c(=O)oc2c1	> 15.1 µM	> 15.1 µM	25.8 ± 1.6	14.6 ± 0.94
COc1ccc(-n2nnnc2SCC(N)=O)c(OC)c1	> 16.9 µM	> 16.9 µM	11.9 ± 3.1	1.34 ± 2.6
Cc1ccc(Nc2nc(N)c3ccccc3n2)cc1Cl	> 16.9 µM	10 µM	111 ± 7.9	48.1 ± 5.2
COc1cccc(/C=N/NC(=O)c2n[nH]c3c2CCCC3)c1	> 16.9 µM	> 16.9 µM	29.6 ± 6.7	3.95 ± 0.69
Cc1ccc(O)c(NC(=O)c2cc(CC(C)C)on2)c1	> 16.9 µM	3.94 µM	89.2 ± 8	37.2 ± 9.3
O=C(Nc1ccccc1O)c1ccc(NS(=O)(=O)c2cccc3cccnc23)cc1	> 16.9 µM	10 µM	85.2 ± 7.5	21.8 ± 6.3
Cc1ccc(O)c(-c2cc(-c3cccs3)[nH]n2)c1	> 18.9 µM	8.75 µM	131 ± 8.8	27.5 ± 2.1
CCOc1ccc(/C=C(\C#N)c2[nH]nc(N)c2C#N)cc1OCC	> 16.9 µM	10 µM	59.8 ± 6.2	15.1 ± 1.6
CCCCNC(=O)c1cc(-c2cccs2)on1	> 16.9 µM	6.65 µM	107 ± 7.8	10.3 ± 2.2

Source: the supplement of paper PMC4954754
